Data set [1] has as its system PRMT5. Particulars: cited from earlier work.
Another data set addresses PRMT1 (Homo sapiens, UniProt Q99873). Put plainly: scintillation proximity assay (SPA) of PRMT1 methyltransferase activity. In kind it is biochemical. The note with it: for remaining activity at 10 µM: 0.5 h, remaining activity of the enzyme, single point SPA test, inhibitor 10 μM, read-out: Relative Activity of PRMT1 at 10 μM. Here is the method: (§1) The methyltransferase activities of PRMT5 and PRMT1 in the absence and presence of the synthetic inhibitors were measured by using the scintillation proximity assay (SPA) protocol (Table 1). In the initial test, the inhibitor concentration was set at 10 μM. H4(1–20)K20biotin [Ac-[…](biotin)-NH2] was used as the peptide substrate, at a final concentration of 0.5 μM. ^3H-SAM was used as the methyl donor at 0.5 μM. SAH was used as a control inhibitor. […] Analysis of the biochemical activity results against PRMT5 disclosed a few interesting structure–activity relationship (SAR) trends. […] If the hydroxyl group of 3 was changed to an amine (6), the potency was improved; however, the selectivity was abolished. Generally, compounds that contained positive charges (6, 20, 21, 22, 24) near the triazole ring had further improved potencies.
Inhibitor was dissolved in water to create a 10 mM stock concentration. This was then diluted in buffer (50 mM HEPES pH 8, 10 mM NaCl, 0.5 mM EDTA, 0.5 mM DTT in H2O) to create a series of working concentrations centered around an anticipated IC50. [H]^3-SAM and substrate were diluted together in buffer to working concentrations of […], respectively. To each well in a 96-well plate, 6 μL of the inhibitor solution was added, with negative and positive controls receiving buffer. In total, 6 μL of the [H]^3-SAM/substrate solution was then added to each well. The enzyme was then diluted in buffer to a working concentration of 0.83 μM, and 18 μL was added to each well, with negative controls receiving 18 μL of buffer. The plate was covered, and the reaction was allowed to run for 30 min and was then quenched with the addition of 30 μL of 100% iPrOH followed by 60 μL of 50% iPrOH in H2O. In total, 10 μL of 20 mg/mL streptavidin-coated scintillant beads were added and the plate was read using a MicroBeta (Perkin Elmer, Waltham, MA, USA) plate reader. The CPM counts in the absence of an inhibitor for each data set were considered as 100% activity. In the absence of the enzyme and inhibitor, the CPM counts in each data set were defined as background (0%).
(Scintillation proximity formats need no separation of bound from free tracer.)

Data set [2] concerns the target T1, PRMT5 (Homo sapiens, UniProt O14744).
T1 construct: His-tag; made in house; host or cells: Sf9 insect cells (Bac-to-Bac baculovirus)
Put plainly: scintillation proximity assay (SPA) of PRMT5 methyltransferase activity. The format is biochemical. Particulars: for remaining activity at 10 µM: 0.5 h, remaining activity of the enzyme, single point SPA test, inhibitor 10 μM, read-out: Relative Activity of PRMT5 at 10 μM. On the procedure: as §1
Human recombinant His-tag PRMT5 was co-expressed with His-tag MEP50 using the Bac-to-Bac baculovirus expression system (Invitrogen, Life Technologies, Carlsbad, CA, USA) as previously described. Briefly, pFB-LIC-Bse-PRMT5 and pFB-LIC-Bse-MEP50 were heat shock transformed in the DH10Bac E. coli to obtain the recombinant bacmids, and the bacmids were extracted using the PureLink HiPure Plasmid Miniprep Kit (Invitrogen, Thermo Scientific, Carlsbad, CA, USA). The purity and concentration of the plasmid were measured by a Nanodrop. Sf9 cells were cultured in Sf-900 II SFM medium until the cell density reached 1.5 × 10^6 cells/mL and cell viability was more than 95%. Cells were plated in a 6-well tissue culture plate at a density of 4 × 10^5 cells/mL per well. In total, 2 µg of PRMT5 and MEP50 recombinant bacmid were transfected into each well of cells. After 5 h of transfection, the transfection medium was replaced by 2 mL of Sf-900 II SFM + 100 U P/S per well. The medium was collected and centrifuged at 1000 rpm for 5 min to obtain the supernatant P1 viral stock after 7 days of inoculation at 27.5 °C. To obtain a higher titer of viral stock, P1 viral stock was amplified in a 6-well tissue culture plate containing 2 × 10^6 cells per well. In total, 0.1 MOI of P1 virus stock was added into each well. After 7 days of incubation at 27.5 °C, the cell medium was centrifuged at 1000 rpm for 5 min to obtain the P2 viral stock in the supernatant. The Baculovirus plaque assay was performed to determine the viral titer concentration; the target concentration range was 1 × 10^7–1 × 10^8 IFU/mL.
For the expression of PRMT5 and MEP50, Sf9 insect cells were cultured in suspension at 27.5 °C at a speed of 130 rpm in Expression Systems ESF 921 medium with 100 U P/S. In total, 200 mL of Sf9 cell culture was inoculated with PRMT5 and MEP50 P2 viral stocks when the cell density reached 1.5 × 10^6 cells/mL. After incubation for 72 h at 27.5 °C, the cells were harvested and centrifuged. PRMT5 and MEP50 protein were collected in the cell pellet for further purification. Cell pellets were disrupted twice at 100 psi in 25 mL of cell lysis buffer (50 mM Tris pH 8, 300 mM NaCl, 10% glycerol, 0.1% Triton X-100, 1 mM PMSF). Before the Ni-NTA purification, 10 mL of Ni-NTA resin (EMD Millipore, Burlington, MA, USA) was loaded into a 50 mL column and equilibrated with equilibration buffer (50 mM Tris pH 8, 250 mM NaCl, 30 mM Imidazole, 10% glycerol, 1 mM TCEP, 1 mM PMSF). After 60 min of cell lysate centrifugation at 4 °C at 18,000 rpm, the cell lysate supernatant was incubated with the equilibrated nickel resin. The resin was washed with equilibration buffer and protein was eluted with elution buffer (50 mM Tris pH 8, 250 mM NaCl, 300 mM Imidazole, 10% glycerol, 1 mM TCEP, 1 mM PMSF). For the dialysis of protein, elution samples were loaded into a 10,000 MWCO SnakeSkin (Thermo Scientific, Waltham, MA, USA) dialysis bag in the storage buffer (50 mM Tris pH 8, 250 mM NaCl, 10% glycerol, 1 mM TCEP). […]

Data set [3] relates to 29 other human methyltransferases. Set-up: method as in PMID 25893041. Particulars: cited from earlier work.
Details of data set [4]: method as in PMID 25915199. Particulars: cited from earlier work.
A further data set relates to BCR-ABL-driven CML. Details: method as in PMID 27643437. Particulars: murine model of BCR-ABL-driven CML; cited from earlier work.
Where [5] appears, read: 0.5 μM H4(1–20)K20biotin, 0.5 μM 3H-SAM.
The mark [6] stands for this setting: SPA, concentration-dependent, read-out: IC50 PRMT1 (converted).
[7] abbreviates: SPA, concentration-dependent, 0.5 μM H4(1–20)K20biotin, 0.5 μM 3H-SAM, read-out: IC50 PRMT5 (converted).

These results are taken from publication PMC9228412, “Synthesis and Activity of Triazole-Adenosine Analogs as Protein Arginine Methyltransferase 5 Inhibitors” (Molecules, 2022).

Where two headings read alike, the source gives them in different places.

Chain of PRMT1 (Q99873 whole entry, species assumed): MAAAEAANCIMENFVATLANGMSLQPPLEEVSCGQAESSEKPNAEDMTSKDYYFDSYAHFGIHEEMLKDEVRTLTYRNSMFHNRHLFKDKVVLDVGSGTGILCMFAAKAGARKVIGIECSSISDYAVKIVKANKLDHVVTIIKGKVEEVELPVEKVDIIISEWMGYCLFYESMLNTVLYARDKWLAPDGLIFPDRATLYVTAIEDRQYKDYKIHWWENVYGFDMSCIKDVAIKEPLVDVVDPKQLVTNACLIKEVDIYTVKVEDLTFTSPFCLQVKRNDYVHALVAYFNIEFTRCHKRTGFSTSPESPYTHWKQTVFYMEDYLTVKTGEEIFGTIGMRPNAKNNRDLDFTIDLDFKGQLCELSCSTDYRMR
T1 sequence (O14744 whole entry): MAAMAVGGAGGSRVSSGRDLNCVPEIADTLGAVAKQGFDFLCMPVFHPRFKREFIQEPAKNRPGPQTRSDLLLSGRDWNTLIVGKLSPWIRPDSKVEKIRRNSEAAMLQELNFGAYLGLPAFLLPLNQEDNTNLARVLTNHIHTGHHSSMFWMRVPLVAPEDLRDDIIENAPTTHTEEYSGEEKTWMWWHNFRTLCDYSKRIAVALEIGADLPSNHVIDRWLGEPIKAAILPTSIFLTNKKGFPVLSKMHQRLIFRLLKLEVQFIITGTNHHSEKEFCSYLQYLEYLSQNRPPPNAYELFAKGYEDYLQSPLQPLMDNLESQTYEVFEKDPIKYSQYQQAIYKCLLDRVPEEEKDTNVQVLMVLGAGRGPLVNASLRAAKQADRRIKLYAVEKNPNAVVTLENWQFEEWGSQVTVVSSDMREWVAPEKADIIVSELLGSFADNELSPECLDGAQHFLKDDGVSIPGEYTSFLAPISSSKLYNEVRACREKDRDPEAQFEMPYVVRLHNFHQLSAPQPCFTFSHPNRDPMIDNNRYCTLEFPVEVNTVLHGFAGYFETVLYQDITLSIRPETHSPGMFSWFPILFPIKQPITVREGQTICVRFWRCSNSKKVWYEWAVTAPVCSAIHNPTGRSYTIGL
T1 sequence (Q9BQA1 whole entry partner): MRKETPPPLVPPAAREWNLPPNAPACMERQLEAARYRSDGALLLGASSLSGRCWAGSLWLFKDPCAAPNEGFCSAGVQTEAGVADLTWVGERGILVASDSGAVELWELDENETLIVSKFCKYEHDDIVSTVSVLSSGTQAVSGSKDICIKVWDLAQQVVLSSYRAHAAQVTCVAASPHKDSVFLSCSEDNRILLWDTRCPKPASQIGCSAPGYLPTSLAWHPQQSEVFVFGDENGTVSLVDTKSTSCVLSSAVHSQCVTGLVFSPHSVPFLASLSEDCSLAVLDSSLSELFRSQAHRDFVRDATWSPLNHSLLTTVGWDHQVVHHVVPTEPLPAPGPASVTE

In the case of `CCn1c2ccccc2c2cc(CNCc3ccccn3)ccc21` [CMP5], the potency in the data set with PRMT5 [1] was 50 µM.

As for `CCC(=O)Oc1ccc(CCc2cn(C[C@H]3O[C@@H](n4cnc5c(N)ncnc54)[C@H](O)[C@@H]3O)nn2)cc1OC(=O)C(C)C` [Compound 17], the results for the remaining activity at 10 µM at PRMT1 and at PRMT5 [2] (setting [5]) were 91 ± 11% and 56 ± 10%, respectively.

With `Nc1ncnc2c1ncn2[C@@H]1O[C@H](Cn2cc(C[C@H](NC(=O)OCC3c4ccccc4-c4ccccc43)C(=O)O)nn2)[C@@H](O)[C@H]1O` [Compound 18, (S)-2-((((9H-fluoren-9-yl)methoxy)carbonyl)amino)-3-(1-(((2R,3S,4R,5R)-5-(6-amino-9H-purin-9-yl)-3,4-dihydroxytetrahydrofuran-2-yl)methyl)-1H-1,2,3-triazol-4-yl)propanoic acid], the remaining activity at 10 µM at PRMT1 stood at 91.2 ± 4.7%; at PRMT5 [2] (setting [5]), 56 ± 6.4%.

On to `Nc1ncnc2c1ncn2[C@@H]1O[C@H](Cn2cc(C[C@H](N)C(=O)O)nn2)[C@@H](O)[C@H]1O` [Compound 19, (S)-2-amino-3-(1-(((2R,3S,4R,5R)-5-(6-amino-9H-purin-9-yl)-3,4-dihydroxytetrahydrofuran-2-yl)methyl)-1H-1,2,3-triazol-4-yl)propanoic acid], for which the IC50 – broadly, the concentration at which inhibition is half-maximal – at PRMT1 (setting [6]) is greater than 200 µM; on PRMT5 [2] (setting [7]), 18.9 µM.

Turning to `CC(C)[C@H](N)C(=O)OCc1cn(C[C@H]2O[C@@H](n3cnc4c(N)ncnc43)[C@H](O)[C@@H]2O)nn1` [Compound 20, (1-(((2R,3S,4R,5R)-5-(6-amino-9H-purin-9-yl)-3,4-dihydroxytetrahydrofuran-2-yl)methyl)-1H-1,2,3-triazol-4-yl)methyl L-valinate], the remaining activity at 10 µM on PRMT1 came out at 111 ± 5.5%; on PRMT5 [2] (setting [5]) it was 26 ± 0.45%. Moreover, the IC50 on PRMT1 (setting [6]) is 43.5 µM; on PRMT5 [2] (setting [7]), 0.88 µM. The “selectivity for PRMT5 over PRMT1” value on PRMT5 [2] (ratio of IC50 values) is reported as “approximately 49 fold”.

As to `Cc1cccc(NC(=O)CNCc2cn(C[C@H]3O[C@@H](n4cnc5c(N)ncnc54)[C@H](O)[C@@H]3O)nn2)c1` [Compound 21, 2-(((1-(((2R,3S,4R,5R)-5-(6-amino-9H-purin-9-yl)-3,4-dihydroxytetrahydrofuran-2-yl)methyl)-1H-1,2,3-triazol-4-yl)methyl)amino)-N-(m-tolyl)acetamide], the values for the remaining activity at 10 µM on PRMT1 and on PRMT5 [2] (setting [5]) were 84 ± 55% and 32 ± 3.3%, respectively.

For `COC(=O)c1ccc(CNCc2cn(C[C@H]3O[C@@H](n4cnc5c(N)ncnc54)[C@H](O)[C@@H]3O)nn2)cc1` [Compound 22, Methyl 4-((((1-(((2R,3S,4R,5R)-5-(6-amino-9H-purin-9-yl)-3,4-dihydroxytetrahydrofuran-2-yl)methyl)-1H-1,2,3-triazol-4-yl)methyl)amino)methyl)benzoate], the remaining activity at 10 µM at PRMT1 was 94.2 ± 2.2%; at PRMT5 [2] (setting [5]), 30 ± 1.7%. Besides, the IC50 was 130 µM at PRMT1 (setting [6]) and 1.3 µM at PRMT5 [2] (setting [7]).

`Nc1ncnc2c1ncn2[C@@H]1O[C@H](Cn2cc(CNC(=O)Nc3ccc(Cl)cc3)nn2)[C@@H](O)[C@H]1O` [Compound 23]: the remaining activity at 10 µM stood at 91.8 ± 16% on PRMT1 and 70 ± 5.6% at PRMT5 [2] (setting [5]).

Consider `Nc1ncnc2c1ncn2[C@@H]1O[C@H](Cn2cc(CNCC(=O)Nc3ccccc3F)nn2)[C@@H](O)[C@H]1O` [Compound 24, 2-(((1-(((2R,3S,4R,5R)-5-(6-amino-9H-purin-9-yl)-3,4-dihydroxytetrahydrofuran-2-yl)methyl)-1H-1,2,3-triazol-4-yl)methyl)amino)-N-(2-fluorophenyl)acetamide], for which the remaining activity at 10 µM was 93 ± 1.3% on PRMT1 and 40 ± 3.6% at PRMT5 [2] (setting [5]). The IC50 at PRMT5 [2] (setting [7]) is 13.2 µM.

As to `CC(C)(C)OC(=O)NCC(=O)NCc1cn(C[C@H]2O[C@@H](n3cnc4c(N)ncnc43)[C@H](O)[C@@H]2O)nn1` [Compound 25], the results for the remaining activity at 10 µM on PRMT1 and at PRMT5 [2] (setting [5]) were 99.1 ± 13% and 72 ± 9.6%, respectively.

As for `Nc1cc2c(cc1F)OCC(=O)N2Cc1cn(C[C@H]2O[C@@H](n3cnc4c(N)ncnc43)[C@H](O)[C@@H]2O)nn1` [Compound 26], the remaining activity at 10 µM at PRMT1 was found to be 100 ± 4.6%; at PRMT5 [2] (setting [5]), 83 ± 2.5%.

Take `CC(C)(C)OC(=O)NCCS(=O)(=O)Cc1cn(C[C@H]2O[C@@H](n3cnc4c(N)ncnc43)[C@H](O)[C@@H]2O)nn1` [Compound 28]: the remaining activity at 10 µM on PRMT1 amounted to 77 ± 23%; on PRMT5 [2] (setting [5]), 76 ± 11%.

Regarding `CC(=O)N[C@@H](CCCNC(=N)N)C(=O)N[C@@H](CCCNC(=N)N)C(=O)N[C@@H](Cc1cn(C[C@H]2O[C@@H](n3cnc4c(N)ncnc43)[C@H](O)[C@@H]2O)nn1)C(=O)N[C@@H](CCCNC(=N)N)C(=O)N[C@@H](CCCNC(=N)N)C(N)=O` [Compound 29], the figures for the IC50 against PRMT1 and against PRMT5 [2] were greater than 400 µM and 53.7 µM, respectively.

`CC(=O)N[C@@H](CO)C(=O)NCC(=O)N[C@@H](Cc1cn(C[C@H]2O[C@@H](n3cnc4c(N)ncnc43)[C@H](O)[C@@H]2O)nn1)C(=O)NCC(=O)N[C@@H](CCCCN)C(N)=O` [Compound 30]: the IC50 was 46.1 µM on PRMT1 and 45.6 µM against PRMT5 [2].

As to `CCNC(=O)NCCSC[C@H]1O[C@@H](n2cnc3c(N)ncnc32)[C@H](O)[C@@H]1O` [DS-437], the IC50 in the data set with PRMT5 [1] (dual PRMT5/PRMT7 inhibitor) is 6 µM. Further, in data set [3], the “activity towards 29 other human methyltransferases” value was “inactive”.

Consider `OC(COc1cccc(CNC2CCCC2)c1)CN1CCc2ccccc2C1` (stereo not drawn) [EPZ007345], for which, in the data set with PRMT5 [1], the potency is 0.326 µM. The in vitro clearance result in data set [4] was “poor”.

As to `Nc1nc2cc(CC[C@H]3C[C@@H](n4ccc5c(N)ncnc54)[C@H](O)[C@@H]3O)ccc2cc1Br` [JNJ-64619178], in the data set with PRMT5 [1] (bisubstrate inhibitor), the IC50 was 0.00015 µM.

As for `CCn1c2ccccc2c2cc(CNC3CCCc4ccccc43)ccc21` (stereo not drawn) [PJ-68], the survival entry with BCR-ABL-driven CML was “significant increase in survival”.
